In patent US20220389009A1, “SUBSTITUTED 1,6-NAPHTHYRIDINE INHIBITORS OF CDK5” (Goldfinch Bio, Inc., priority 2019, published 2022) one finds IC50 and CDK5/CDK2 specificity data, which are given here for four compounds.

One experiment addresses CDK5/p25 (Homo sapiens, UniProt Q00535). Put plainly: CDK5 mobility shift assay (enzymatic activity of CDK5/p25). Type of experiment: biochemical. The conditions noted are these: for IC50: 0.154 nM CDK5/p25, FL peptide 29, 60 min at room temperature, read-out: CDK5 IC50; for CDK5/CDK2 specificity: fold more active against CDK5 than CDK2. A digest of the protocol: (§1)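 Phosphorylation of 1.5 μM fluorescent peptide was read by microfluidic mobility shift and fitted to IC50 (4-parameter), normalized to no-compound and no-enzyme controls. CDK5/p25 ran at 0.154 nM with […] ATP for 60 min, using peptide 29. CDK2/CycA2 ran at 1.25 nM with 37 μM ATP for 120 min, using peptide 18. Both included a 30-min compound preincubation in pH 7.5 buffer.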

In a further experiment the target is CDK2/CycA2 (Homo sapiens, UniProt P24941). Put plainly: CDK2 mobility shift assay (enzymatic activity of CDK2/CycA2). The conditions noted are these: 1.25 nM CDK2/CycA2, 37 μM ATP, FL Peptide 18, 120 min at room temperature; read-out: CDK2 IC50. The class given is biochemical. A digest of the protocol:
as §1

CDK5/p25, sequence (Q00535 whole entry): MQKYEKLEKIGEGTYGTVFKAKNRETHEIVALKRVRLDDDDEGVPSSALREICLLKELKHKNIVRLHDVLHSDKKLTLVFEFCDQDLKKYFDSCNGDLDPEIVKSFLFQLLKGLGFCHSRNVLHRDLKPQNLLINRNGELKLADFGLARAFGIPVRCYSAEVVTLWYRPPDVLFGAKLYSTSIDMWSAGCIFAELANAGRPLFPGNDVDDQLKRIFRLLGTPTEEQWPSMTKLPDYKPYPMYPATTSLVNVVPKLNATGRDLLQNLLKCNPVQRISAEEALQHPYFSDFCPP
CDK5/p25, sequence (Q15078 99-307 partner limits assumed): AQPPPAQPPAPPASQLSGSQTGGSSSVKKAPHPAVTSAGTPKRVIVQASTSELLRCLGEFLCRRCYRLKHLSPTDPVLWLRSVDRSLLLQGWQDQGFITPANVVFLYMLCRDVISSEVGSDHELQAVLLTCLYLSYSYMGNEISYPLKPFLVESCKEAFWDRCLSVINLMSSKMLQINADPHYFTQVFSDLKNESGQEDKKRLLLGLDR

In the case of `CN1CCC(C(C)(O)c2ccc3cnc(Nc4ccc(-c5cccc(=O)[nH]5)cc4F)cc3n2)CC1` (stereo not drawn) [Compound 393], at CDK5/p25, the IC50 – broadly, the point on the concentration scale where inhibition reaches its midpoint – was less than 10 nM; the CDK5/CDK2 specificity entry is “++ (greater than 10-fold and less than or equal to 100-fold more active against CDK5 than CDK2)”. Further, the IC50 on CDK2/CycA2 lay in the range of 10 to 100 nM.
`Cc1ccc(F)c(Nc2cc3nc(C(O)(C4CCN(C)CC4)C(F)(F)F)ccc3cn2)c1` (stereo not drawn) [Compound 394]: at CDK5/p25, the half-inhibitory concentration (IC50) is less than 10 nM; the CDK5/CDK2 specificity entry was “++ (greater than 10-fold and less than or equal to 100-fold more active against CDK5 than CDK2)”. The IC50 at CDK2/CycA2 lay in the range of 10 to 100 nM.
`CC(c1ccc2cnc(Nc3ccc(-c4cccc(C(N)=O)c4)cc3F)cc2n1)C1CCN(C)CC1` (stereo not drawn) [Compound 410, 3′-fluoro-4′-([2-[1-(1-methylpiperidin-4-yl)ethyl]-1,6-naphthyridin-7-yl]amino)-[1,1′-biphenyl]-3-carboxamide]: the half-inhibitory concentration (IC50) on CDK5/p25 was less than 10 nM; at CDK2/CycA2, 100 to 1000 nM. Further, the CDK5/CDK2 specificity entry on CDK5/p25 is recorded as “+++ (greater than 100-fold more active against CDK5 than CDK2)”.
For the compound `CN1CCC([C@@](C)(O)c2ccc3cnc(Nc4ccc(-c5cc[nH]n5)cc4F)cc3n2)CC1` [Compound 414, (1R)-1-(7-[[2-fluoro-4-(1H-pyrazol-3-yl)phenyl]amino]-1,6-naphthyridin-2-yl)-1-(1-methylpiperidin-4-yl)ethanol], at CDK5/p25, the IC50 was less than 10 nM; the CDK5/CDK2 specificity result was “++ (greater than 10-fold and less than or equal to 100-fold more active against CDK5 than CDK2)”. Further, the IC50 at CDK2/CycA2 fell in the range of 10 to 100 nM.
